The nature of series [1]: Qualitative assessment of reduction of methylene blue in aqueous solution (visual colour change blue to colourless). In kind it is physicochemical. The note with it: for Rate/extent of reduction: neutral, final pH about 6.5; for Rate of reduction: compared to neutral pH. As to the method: In aqueous solution, the oxidised form of methylene blue has a deep blue coloration, and the reduced (leuco) form is colourless and clear. Reduction of methylene blue can therefore be determined by observation of a colour change from blue to colourless. In the present experiments, the colour change was measured by eye against a white background, but instrumentation, e.g. a visible range spectrophotometer, could also be used.
Individual reducing agents or combinations of reducing agents were added to a solution of methylene blue. […] Reduction of methylene blue was assessed by visual observation of colour change. […] The pH of the final solution of methylene blue and reducing agent(s) was about pH 6.5 in each case (here referred to as “neutral”).
Individual reducing agents or combinations of reducing agents were added, in solution; to a methylene blue solution which had been made either acid or alkaline using acetic acid or sodium hydroxide, respectively. The effect of pH on reduction of methylene blue was determined. Reduction of methylene blue was assessed by visual observation of colour change. The rate of reduction (if any) was compared to the rates of reduction at neutral pH.
In the present context, “acid” refers to a pH adjusted to approximately 3.7 using acetic acid, and “alkali” refers to a pH adjusted to approximately 9.8 using sodium hydroxide. The results are as follows: […]

A short description of series [2]: Qualitative assessment of reduction of thionine in aqueous solution (visual colour change blue/purple to colourless). In kind it is physicochemical. The settings on record: thionine 50 mg/30 ml; reducing agents 250 mg/3 ml. Here is the method:
The following reducing agents or combinations of reducing agents (250 mg/3 ml) were added to an aqueous solution of thionine (50 mg/30 mU. Reduction of thionine was determined by visual observation of colour change from blue/purple to colourless. All experiments used 1.67 mg/mI (50 mg/30 ml) thionine solution. Ascorbic acid, L-cysteine or glutathione was used in solution at 83.3 mg/mi (250 mg/3 ml).

Setting [3] is: acid, pH approximately 3.7 (acetic acid).
Where [4] appears, read: alkali, pH approximately 9.8 (sodium hydroxide).

On to `O=S([O-])S(=O)(=O)[O-].[Na+].[Na+]` [sodium metabisulphite], for which the Rate/extent of reduction result in series [1] is reported as “no reduction”.
As for `N[C@@H](CCC(=O)N[C@@H](CS)C(=O)NCC(=O)O)C(=O)O` [glutathione], the Rate of reduction entry in series [2] is on record as “no reduction”; in series [1] (setting [3]), “no observable reduction (as with neutral)”; in series [1] (setting [4]), “slight reduction over 10-15 minutes”. In series [1], the Rate/extent of reduction result is reported as “no reduction over 15 minutes”.
As for `CSCC[C@H](N)C(=O)O` [methionine], the Rate/extent of reduction result in series [1] is on record as “no reduction”.
For the compound `O=S([O-])S(=O)[O-].[Na+].[Na+]` [sodium hydrosulphite], the Rate of reduction result in series [2] is “rapid reduction”. In series [1], the Rate/extent of reduction result is reported as “very rapid reduction”.
Turning to `Cl.N[C@@H](CS)C(=O)O` [L-cysteine, L-cysteine hydrochloride], in series [1], the Rate/extent of reduction entry is given as “no reduction”.
On to `O=C1O[C@H]([C@@H](O)CO)C(O)=C1O` [ascorbic acid], for which the figures for the Rate of reduction entry in series [2], in series [1] (setting [3]) and in series [1] (setting [4]) were “reduced in about 10-15 minutes”, “no change in rate compared to neutral” and “no change in rate compared to neutral”, respectively. In addition, the Rate/extent of reduction entry in series [1] is listed as “reduced slowly over 10-15 minutes”.
Turning to `CC(=O)N[C@@H](CS)C(=O)O` [N-acetyl-L-cysteine, N-acetyl L-cysteine], in series [1], the Rate/extent of reduction entry is “partial reduction”.

The record behind these values is US20040033936A1, “Production, stabilisation and use of reduced forms of pharmaceutical compounds” (priority 2000, published 2004).
